Source: PubChem BioAssay (NCI)
Where “and” joins values, the source holds several entries; their conditions need not be identical. Equal entries are not always repeated.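 Test compounds were applied to cells in 96-well plates for 48 hours at 5 doses. GI50 marks 50% less growth. TGI marks complete inhibition of growth.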

Tests used:
Assay in all cases: NCI-60 cell line screen, 48 h
BT-549 breast = tested on: BT-549 breast
HOP-92 NSCLC = tested on: HOP-92 NSCLC
MALME-3M melanoma = tested on: MALME-3M melanoma
MDA-MB-435 = tested on: MDA-MB-435
NCI-H23 lung = tested on: NCI-H23 lung
OVCAR-5 ovarian = tested on: OVCAR-5 ovarian
SK-MEL-28 melanoma = tested on: SK-MEL-28 melanoma
SNB-75 CNS = tested on: SNB-75 CNS
UACC-62 melanoma = tested on: UACC-62 melanoma
UO-31 renal = tested on: UO-31 renal

| Structure (SMILES) | TGI (BT-549 breast) | TGI (HOP-92 NSCLC) | TGI (MALME-3M melanoma) | TGI (MDA-MB-435) | TGI (NCI-H23 lung) | TGI (OVCAR-5 ovarian) | TGI (SK-MEL-28 melanoma) | TGI (SNB-75 CNS) | TGI (UACC-62 melanoma) | TGI (UO-31 renal) | GI50 (BT-549 breast) | GI50 (HOP-92 NSCLC) | GI50 (MALME-3M melanoma) | GI50 (MDA-MB-435) | GI50 (NCI-H23 lung) | GI50 (OVCAR-5 ovarian) | GI50 (SK-MEL-28 melanoma) | GI50 (SNB-75 CNS) | GI50 (UACC-62 melanoma) | GI50 (UO-31 renal) |
| --- | --- | --- | --- | --- | --- | --- | --- | --- | --- | --- | --- | --- | --- | --- | --- | --- | --- | --- | --- | --- |
| O=[N+]([O-])c1ccc(C2=Nn3c(nnc3-c3ccc(Cl)cc3)SC2)o1 | 23.9 µM | 8.31 µM | 12.4 µM | 4.39 µM | 18.6 µM | 33.8 µM | 28 µM | 32 µM | 25.9 µM | 15.4 µM |  |  |  |  |  |  |  |  |  |  |
| CCCCCCn1c(-c2ccc(C(=O)O/N=C(\N)c3ccc4ccccc4c3)cc2)nc(-c2ccccc2)c1-c1ccccc1 | > 100 µM | 7.77 µM | > 100 µM | > 100 µM | > 100 µM | > 100 µM | > 100 µM | 20.1 µM | > 100 µM | > 100 µM | 8 µM | 1.92 µM | > 49.9 µM | 7.42 µM | 7.57 µM | > 100 µM | > 100 µM | 2.18 µM | 22.6 µM | 2.17 µM |
| C[C@]12CC[C@@H]3c4cc(O)c(O)cc4CC[C@H]3[C@@H]1CC[C@@H]2O | 42.3 µM | 29 µM | 44.4 µM | 1.1 µM | > 83.7 µM | > 100 µM | > 100 µM | 8.32 µM | 29.1 µM | 77.8 µM | 1.78 µM | 3.32 µM | 0.708 µM | 0.286 µM | 5.31 µM | 25 µM | 5.47 µM | 1.55 µM | 3.9 µM | 5.68 µM |
| Cc1cc(O)cc(C)c1/C=C/c1cncc(C(N)=O)c1 | > 25 µM | > 14.7 µM | 24.4 µM | 1.77 µM | > 25 µM | > 25 µM | > 25 µM | > 18.2 µM | 23.1 µM | > 25 µM | 4.51 µM | 1.5 µM | 1.64 µM | 0.538 µM | 7.24 µM | 12.1 µM | 2.3 µM | 2.81 µM | 1.36 µM | 5.58 µM |
| CCCCCCCCC/C(=N\NC(=O)c1ccncc1)c1ccc(O)c(O)c1O | 67.2 µM | > 100 µM | > 100 µM | > 100 µM | 29.1 µM | 78.6 µM | > 100 µM | > 100 µM | 3.3 µM | > 29.3 µM | 0.36 µM | 0.385 µM | 0.491 µM | 0.456 µM | 0.393 µM | 0.765 µM | 0.384 µM | 0.631 µM | 0.188 µM | 0.0745 µM |
| CC1(C)CC[C@]2(C(=O)O)CC[C@]3(C)C(=CC[C@@H]4[C@@]5(C)C[C@H](O)[C@H](O)[C@@](C)(C(=O)O)[C@@H]5CC[C@]43C)[C@@H]2C1 | > 100 µM | > 100 µM | > 100 µM | > 100 µM | > 100 µM | > 100 µM | > 100 µM | > 100 µM | > 94.2 µM | > 100 µM |  |  |  |  |  |  |  |  |  |  |
| C=C1C(=O)O[C@H]2[C@H]1CC/C(C=Nc1c(N)cc(C(F)(F)F)cc1C(F)(F)F)=C\CC[C@@]1(C)O[C@@H]21 | 3.17 µM | 3.09 µM | 3.95 µM | 6.05 µM | 4.17 µM | 4.59 µM | 3.83 µM | 15.4 µM | 2.99 µM | 2.38 µM | 1.47 µM | 1.22 µM | 2 µM | 2.03 µM | 1.77 µM | 1.87 µM | 1.87 µM | 1.78 µM | 1.28 µM | 1.07 µM |
| CC1=CCCC2C1(C)CCC(C)C2(C)Cc1cc(O)ccc1O (stereo unspecified) | 16.2 µM | 22.6 µM and 15.2 µM | 29.2 µM and 35.7 µM | 27 µM | 20.4 µM and 17.5 µM | 28.7 µM and 38.9 µM | 29.9 µM and 31.1 µM | 20.5 µM and 21.7 µM | 28.7 µM and 24.5 µM | 19.1 µM and 15.4 µM |  |  | 14.7 µM |  | 7.38 µM |  |  |  | 13 µM |  |
| Cc1nc(-c2nc(-c3ccc(OC(F)(F)F)cc3)no2)nn1Cc1cccc(N2CCC(S(C)(=O)=O)CC2)c1 | 38.6 µM | > 89 µM | > 76.8 µM | > 100 µM | > 100 µM | > 100 µM | > 100 µM | 48.5 µM | > 100 µM | > 100 µM | 1.07 µM | 28.9 µM | > 34.3 µM | 2.9 µM | < 0.01 µM | > 65.8 µM | > 24.7 µM | 5.13 µM | 3.51 µM | 1.46 µM |
| COC(=O)C1=COC(C)C2CN3CCc4c([nH]c5cc(OC)c(OC)cc45)C3CC12 (stereo unspecified) | > 100 µM and 61.6 µM | > 100 µM | > 100 µM | > 100 µM | > 100 µM | > 100 µM | > 100 µM | > 100 µM | > 100 µM | > 100 µM | > 100 µM and 18.5 µM |  |  |  |  |  | > 100 µM and 34.2 µM | 38.7 µM and > 100 µM |  |  |
| COc1cc2ncnc(Nc3cccc(Cl)c3F)c2cc1OC(=O)N1CCN(C)C[C@H]1C | > 67.2 µM | > 54.8 µM | > 60.6 µM | > 59.7 µM | 97.3 µM | > 90.8 µM | > 65.5 µM | > 50.1 µM | > 65.5 µM | > 50.2 µM | > 42.2 µM | 14.2 µM | > 39.5 µM | > 40.7 µM | > 47.5 µM | > 32.7 µM | > 42.2 µM | 10.8 µM | > 40.7 µM | 6.89 µM |
| COc1cc2c(cc1Cc1cccc(Cl)c1F)c(=O)c(C(=O)O)cn2[C@@H](CO)C(C)C | 8.66 µM | 6.34 µM | 18.9 µM | 15.2 µM | 12.4 µM | 15.4 µM | 21.9 µM | 13.7 µM | 10.1 µM | 11.9 µM | 2.09 µM | 1.45 µM | 5.16 µM | 3.84 µM | 3.18 µM | 4.28 µM | 6.63 µM | 2.53 µM | 2.74 µM | 2.62 µM |
| Cc1ccc2c(c1)c(Sc1ccc(C(=O)NO)cc1)c1n2CN(C)CC1 | 4.57 µM | 6.37 µM | 4.2 µM | 3.37 µM | 3.85 µM | 5.54 µM | 3.63 µM | 3.76 µM | 3.25 µM | 9.1 µM | 1.8 µM | 2.1 µM | 1.35 µM | 1.58 µM | 1.8 µM | 1.75 µM | 1.58 µM | 0.96 µM | 1.51 µM | 2.15 µM |
| Cc1ccc(NC(=O)c2cc3ccccc3c(N=Nc3cc(S(=O)(=O)O)ccc3O)c2O)c(C)c1 | > 100 µM | > 100 µM | 63.8 µM | > 100 µM | 56.6 µM | 89.2 µM | > 100 µM | > 100 µM | 83.8 µM | 34.1 µM |  |  |  |  |  |  |  |  |  |  |
| [Cl][Hg][c]1ccc(Cl)s1 | 5.21 µM | 3.11 µM | 2.94 µM | 5.7 µM | 8.05 µM | 3.29 µM | 2.87 µM | 17.3 µM | 3.46 µM | 3.26 µM | 2.11 µM | 1.67 µM | 1.3 µM | 2.08 µM | 2.69 µM | 1.72 µM | 1.42 µM | 3.57 µM | 1.57 µM | 1.78 µM |
| CN1CCC2(CC1)NC(=O)c1c(c3ccc(Cl)c(Cl)c3n1C)C2C#N (stereo unspecified) | 12.5 µM | 19.6 µM | 9.52 µM | 6.58 µM | 25.7 µM | 24.3 µM | 3.89 µM | 18.8 µM | 3.22 µM | 17.4 µM | 2.62 µM | 2.52 µM | 3.11 µM | 2.29 µM | 11.4 µM | 8.67 µM | 1.92 µM | 4.46 µM | 1.66 µM | 4.21 µM |
| Cc1ccc(-c2cc3c4c(nc5ccccc53)C(=O)c3cccnc3-c4n2)cc1 | 41 µM | > 100 µM | 32.6 µM | 16 µM | 20.9 µM | 60.9 µM | 41.1 µM | > 53.6 µM | 31.1 µM | > 82.6 µM | 17.4 µM | 26.5 µM | 17.8 µM | 5.08 µM | 7.03 µM | 23 µM | 19.1 µM | 13.1 µM | 16 µM | 17.1 µM |
| Cn1nc(C(F)(F)F)cc1-c1c[nH]c(OCc2ccc(Cl)cc2)c(-c2ccc(Cl)c(C(F)(F)F)c2)c1=O | 3.31 µM | 1.54 µM | 3.07 µM | 6.75 µM | 5.95 µM | > 32.8 µM | 3.97 µM | 2.72 µM | 2.29 µM | 3.56 µM | 1.04 µM | 0.224 µM | 1.09 µM | 1.37 µM | 1.05 µM | 1.71 µM | 1.07 µM | 0.872 µM | 0.516 µM | 1.05 µM |
| COc1ccc2c(c1)oc(=O)c1cc(OC)ccc12 | > 100 µM | > 100 µM | > 100 µM | > 100 µM | > 100 µM | > 100 µM | > 100 µM | > 100 µM | > 100 µM | > 100 µM | > 100 µM | > 100 µM | > 100 µM | > 100 µM | > 100 µM | > 100 µM | > 100 µM | > 100 µM | 63 µM | 32.9 µM |
